Laboratory results from patent US5175338A, “Isocarbacyclin derivatives and their pharmaceutically acceptable salts thereof” (Teijin Limited, priority 1986, dated 1992).
Values after ≈ are worked out from the molar mass of the structure shown.

Tests used:
Platelet aggregation = Platelet aggregation inhibiting activity in vitro (ADP-induced, rabbit platelet-rich plasma); assay type: cell-based, rabbits (Japanese native white male); conditions: Oryctolagus cuniculus, rabbit PRP, ADP 10 μM, 37° C., minimum concentration at which inhibition exceeds 50%, read-out: Platelet aggregation inhibitory activity (IC50)
Description: The platelet aggregation inhibiting activity in vitro of each of the text compounds was assayed by using rabbits. Japanese native white male rabbits having a body weight of 2.5 to 3.5 kg were used. Blood was taken from the ear vein of the animals maintaining the 3.8% trisodium citrate/blood ratio at 1:9. The blood was centrifuged at 1,000 rpm for 10 minutes, and the upper layer was separated as PRP (platelet-rich plasma). The lower layer was further centrifuged at 2,800 rpm for 10 minutes. It separated into two layers. The upper layer was separated as PPP (platelet-poor plasma). The number of platelets was adjusted to 6×10^5 /microliter by dilution with PPP. Each of the test compounds was added in an amount of 25 microliters to 250 microliters of PRP after adjustment, and the mixture was subjected to preincubation at 37° C. for 2 minutes. Then ADP was added so that its final concentration was 10 μM, and variations in transmittance were recorded by using an agrigometer. The test compound was used after it was dissolved in ethanol to a concentration of 10 mg/ml and then serially diluted with phosphate buffer (pH 7.4). The percent inhibition of aggregation was calculated in accordance with the following equation. [formula] where
To is the transmittance of the system to which the test compound was not added, and
T is the transmittance of the system to which the test compound was added.
The minimum concentration of the compound at which the percent inhibition exceeds 50% is shown as IC50.

[1] = system: liver cell necrosis induced by carbon tetrachloride; assay: Effect (in vivo) on liver cell necrosis induced by carbon tetrachloride; inhibition of plasma GPT activity increase; parameters: species or system SD-strain male rats; conditions: five administrations, 24 hours after CCl4 s.c., rat
Description: Effect (in vivo) on liver cell necrosis induced by carbon tetrachloride
Carbon tetrachloride and each of the test compounds were administered to SD-strain male rats (6 weeks old, body weight 170 to 200 g) by the following procedure. Blood was taken from the animals, and glutamic acid-pyruvic acid transferase (GPT) activity as an index of liver injury was measured by the ultraviolet absorbance measuring method (rate-optimum standard method), and the effect of the test compound was evaluated.
The rats were used in groups each consisting of 8 to 36 rats. The test compound was used as an aqueous 0.5% Tween 80-2.5% ethanol solution. […] The test compound was administered five times in total, i.e. 30 minutes before administration of carbon tetrachloride and 1, 2, 8 and 18 hours after administration of carbon tetrachloride. The carbon tetrachloride was subcutaneously administered as a 50% olive oil solution at a rate of […] of body weight (6670 mg/kg body weight as carbon tetrachloride). Before administration of carbon tetrachloride, the animals had been caused to abstain from food for about 18 hours.
Twenty-four hours after the administration of carbon tetrachloride, the rats were anesthetized with ether. Blood was drawn from the abdominal artery of the animals, and left to stand at room temperature for 1 hour and then centrifuged at 3,000 rpm for 15 minutes. The supernatant was used as a serum sample, and the GPT activity was measured.
The percent inhibition of the test compound on the increase of the plasma GPT activity increase by CCl4 was calculated in accordance with the following equation. [formula]

IC50 (Platelet aggregation) [µg/mL] | Compound | Percent inhibition of the plasma GPT activity ([1]; 0.3 mg/kg p.o.) [%] | Percent inhibition of the plasma GPT activity ([1]; 1.0 mg/kg p.o.) [%] | Percent inhibition of the plasma GPT activity ([1]; 3.0 mg/kg p.o.) [%]
0.37 (≈ 1.02 µM) | CCCCC(C)(O)C/C=C/[C@@H]1[C@H]2CC(CCCCC(=O)O)=C[C@H]2C[C@H]1O (stereo partly shown) [15-Deoxy-16-hydroxy-16-methylisocarbacyclin] | – | – | –
> 1000 | CCCC[C@H](C)C[C@H](O)/C=C/[C@@H]1[C@H]2CC(CCCCC(=O)N[C@@H](CC(C)C)C(=O)O)=C[C@H]2C[C@H]1O [17(S),20-Dimethylisocarbacyclin L-leucine amide] | 33 | – | –
407 (≈ 932 µM) | CCCC[C@H](C)C[C@H](O)/C=C/[C@@H]1[C@H]2CC(CCCCC(=O)OCC(=O)O)=C[C@H]2C[C@H]1O [17(S),20-dimethylisocarbacyclin carboxymethyl ester] | – | 44 | 39
0.004 (≈ 0.0113 µM) | CCCCC[C@H](O)/C=C/[C@@H]1[C@H]2C/C(=C/CCCC(=O)O)O[C@H]2C[C@H]1O [Prostaglandin I2, reference compound] | – | – | –
